Laboratory results reported in ChEMBL document CHEMBL1155340, “Discovery of a novel azepine series of potent and selective 5-HT2C agonists as potential treatments for urinary incontinence” (Bioorg Med Chem Lett, 2009).
pEC50, pKi: −log10 of the molar value.

Experiments:
[1] = biological target: T1, 5-hydroxytryptamine receptor 2C (Homo sapiens) (UniProt P28335); test: Agonist activity at human recombinant 5HT2C receptor expressed in CHO K1 cells assessed as induction of calcium mobilization by FLIPR assay relative to 5-HT; format: functional, cell-based
T1 sequence (whole entry): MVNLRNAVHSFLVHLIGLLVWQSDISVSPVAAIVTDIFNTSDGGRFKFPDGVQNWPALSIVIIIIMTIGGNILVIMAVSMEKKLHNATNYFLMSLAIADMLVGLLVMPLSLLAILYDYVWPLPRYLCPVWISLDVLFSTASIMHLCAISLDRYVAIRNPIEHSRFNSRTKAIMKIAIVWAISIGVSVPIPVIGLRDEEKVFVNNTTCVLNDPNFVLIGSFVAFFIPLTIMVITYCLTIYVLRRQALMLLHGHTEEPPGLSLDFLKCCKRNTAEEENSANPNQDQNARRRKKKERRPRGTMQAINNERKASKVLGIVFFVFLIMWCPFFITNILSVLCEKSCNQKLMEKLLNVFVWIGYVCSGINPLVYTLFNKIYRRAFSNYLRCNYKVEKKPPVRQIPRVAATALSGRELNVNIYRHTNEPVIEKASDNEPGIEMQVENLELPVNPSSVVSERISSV

[2] = biological target: T2, 5-hydroxytryptamine receptor 2B (Homo sapiens, UniProt P41595); test: Agonist activity at human recombinant 5HT2B receptor assessed as induction of calcium mobilization at 10 uM by FLIPR assay relative to 5-HT; format: functional
[3] = biological target: T3, 5-hydroxytryptamine receptor 2C (Homo sapiens, UniProt P28335)
T3 sequence (P28335 whole entry): T1 sequence (whole entry)

[4] = biological target: T2, 5-hydroxytryptamine receptor 2B
[5] = physchem; details: buffer, pH 7.4
Description: Lipophilicity, log D at pH 7.4

[6] = biological target: T2, 5-hydroxytryptamine receptor 2B; test: Agonist activity at human recombinant 5HT2B receptor assessed as induction of calcium mobilization by FLIPR assay relative to 5-HT; format: functional
[7] = in vitro; details: human, liver microsomes
Description: (§1) Metabolic stability in human liver microsomes assessed per mg of protein

[8] = system: MDR1; test: in vitro; details: dog, MDCK-MDR1
Description: Apparent membrane permeability across apical to basolateral side of MDR1 expressing MDCK cells

[9] = biological target: 5-hydroxytryptamine receptor 2A (Canis lupus familiaris) (UniProt O46635); test: Agonist activity at 5-HT2A receptor in dog bladder strip relative to 5-HT; format: functional
[10] = biological target: 5-hydroxytryptamine receptor 2A (Canis lupus familiaris, UniProt O46635); test: Agonist activity at 5-HT2A receptor in dog bladder strip; format: functional
[11] = system: Canis familiaris; test: Increase of peak urethral pressure in dog model of stress incontinence at 150 ug/kg, iv after 60 mins; format: functional, Canis lupus familiaris, Urethra
[12] = biological target: Cytochrome P450 3A4 (Homo sapiens, UniProt P08684); test: Inhibition of CYP3A4; format: ADME
[13] = Plasma concentration in dog model of stress incontinence at 150 ug/kg, iv after 60 mins; format: ADME, organism-based, Canis lupus familiaris; details: 0.15 mg/kg
[14] = biological target: Beta-2 adrenergic receptor (Homo sapiens, UniProt P07550); test: Inhibition of beta2 adrenergic receptor
[15] = biological target: Cytochrome P450 2D6 (Homo sapiens, UniProt P10635); test: Inhibition of CYP2D6; format: ADME
[16] = biological target: T4, Cytochrome P450 1A2 (Homo sapiens, UniProt P05177); test: Inhibition of CYP1A2; format: ADME
T4 sequence (P05177 whole entry): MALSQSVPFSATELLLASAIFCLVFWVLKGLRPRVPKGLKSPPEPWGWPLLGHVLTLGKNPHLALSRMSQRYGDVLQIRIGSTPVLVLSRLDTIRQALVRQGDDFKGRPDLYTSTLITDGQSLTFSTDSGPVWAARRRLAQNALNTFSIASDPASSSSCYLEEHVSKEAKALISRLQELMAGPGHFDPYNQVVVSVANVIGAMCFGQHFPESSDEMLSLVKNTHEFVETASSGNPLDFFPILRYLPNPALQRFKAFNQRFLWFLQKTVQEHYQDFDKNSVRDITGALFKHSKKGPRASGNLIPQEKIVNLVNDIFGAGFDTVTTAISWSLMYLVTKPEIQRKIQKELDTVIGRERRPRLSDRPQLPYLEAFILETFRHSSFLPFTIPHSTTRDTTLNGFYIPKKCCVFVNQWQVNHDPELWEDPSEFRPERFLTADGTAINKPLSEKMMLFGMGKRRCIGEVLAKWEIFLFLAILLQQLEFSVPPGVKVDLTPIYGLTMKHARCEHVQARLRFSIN

[17] = biological target: Muscarinic acetylcholine receptor M3 (Homo sapiens, UniProt P20309); test: Inhibition of muscarinic receptor 3
[18] = biological target: Voltage-gated inwardly rectifying potassium channel KCNH2 (Homo sapiens, UniProt Q12809); test: Displacement of dofrtilide from human ERG channel
[19] = biological target: T5, 5-hydroxytryptamine receptor 3A (Homo sapiens, UniProt P46098); test: Inhibition of 5HT3 receptor
T5 sequence (P46098 whole entry): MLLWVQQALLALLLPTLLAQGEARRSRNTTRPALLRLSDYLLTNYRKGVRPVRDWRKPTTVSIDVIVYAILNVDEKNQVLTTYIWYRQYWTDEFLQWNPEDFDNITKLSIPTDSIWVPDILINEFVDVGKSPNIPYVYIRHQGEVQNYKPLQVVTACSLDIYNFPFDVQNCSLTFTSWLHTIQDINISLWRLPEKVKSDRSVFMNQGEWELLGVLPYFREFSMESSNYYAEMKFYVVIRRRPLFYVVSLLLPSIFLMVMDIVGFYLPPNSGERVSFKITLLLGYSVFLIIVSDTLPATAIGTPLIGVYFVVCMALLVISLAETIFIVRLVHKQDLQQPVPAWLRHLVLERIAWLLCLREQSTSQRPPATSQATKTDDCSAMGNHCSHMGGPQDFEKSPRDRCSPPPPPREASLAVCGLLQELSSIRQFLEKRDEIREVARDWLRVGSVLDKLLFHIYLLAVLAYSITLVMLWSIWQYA

[20] = biological target: Cytochrome P450 2C9 (Homo sapiens, UniProt P11712); test: Inhibition of CYP2C9; format: ADME
[21] = system: Liver microsomes; details: human
Description: as §1

[22] = species on record: Homo sapiens; test: Selectivity ratio of EC50 for human recombinant 5HT2B receptor to EC50 for human recombinant 5HT2A receptor

T2 sequence (P41595 whole entry): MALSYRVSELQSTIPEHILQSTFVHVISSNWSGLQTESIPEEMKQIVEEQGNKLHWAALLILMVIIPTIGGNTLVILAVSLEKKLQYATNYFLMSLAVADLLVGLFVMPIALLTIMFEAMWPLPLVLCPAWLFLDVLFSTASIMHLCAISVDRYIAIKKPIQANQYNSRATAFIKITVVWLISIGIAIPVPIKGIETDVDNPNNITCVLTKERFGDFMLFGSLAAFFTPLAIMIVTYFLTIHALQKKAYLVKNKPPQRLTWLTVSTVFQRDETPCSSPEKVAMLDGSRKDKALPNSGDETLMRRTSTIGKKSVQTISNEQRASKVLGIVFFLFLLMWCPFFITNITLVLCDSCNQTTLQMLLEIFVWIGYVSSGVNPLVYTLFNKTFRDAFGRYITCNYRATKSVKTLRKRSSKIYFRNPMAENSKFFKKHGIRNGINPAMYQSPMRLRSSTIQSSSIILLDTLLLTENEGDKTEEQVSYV
Sequence of 5-hydroxytryptamine receptor 2A (O46635 whole entry): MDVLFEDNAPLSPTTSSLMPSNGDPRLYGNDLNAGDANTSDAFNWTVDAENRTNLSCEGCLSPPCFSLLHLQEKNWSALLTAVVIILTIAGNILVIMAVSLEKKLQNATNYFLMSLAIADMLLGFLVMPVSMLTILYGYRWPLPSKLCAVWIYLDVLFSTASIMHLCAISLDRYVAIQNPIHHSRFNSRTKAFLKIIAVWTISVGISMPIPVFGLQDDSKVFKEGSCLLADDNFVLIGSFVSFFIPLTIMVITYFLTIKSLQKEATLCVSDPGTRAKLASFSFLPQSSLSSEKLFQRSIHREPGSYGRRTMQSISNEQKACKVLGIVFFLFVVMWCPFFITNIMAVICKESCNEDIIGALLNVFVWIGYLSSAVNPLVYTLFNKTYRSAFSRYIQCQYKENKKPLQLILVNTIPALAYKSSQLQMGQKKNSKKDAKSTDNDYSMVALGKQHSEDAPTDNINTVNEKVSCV
Sequence of 5-hydroxytryptamine receptor 2A (Canis lupus familiaris) (O46635 whole entry): as above
Sequence of Muscarinic acetylcholine receptor M3 (P20309 whole entry): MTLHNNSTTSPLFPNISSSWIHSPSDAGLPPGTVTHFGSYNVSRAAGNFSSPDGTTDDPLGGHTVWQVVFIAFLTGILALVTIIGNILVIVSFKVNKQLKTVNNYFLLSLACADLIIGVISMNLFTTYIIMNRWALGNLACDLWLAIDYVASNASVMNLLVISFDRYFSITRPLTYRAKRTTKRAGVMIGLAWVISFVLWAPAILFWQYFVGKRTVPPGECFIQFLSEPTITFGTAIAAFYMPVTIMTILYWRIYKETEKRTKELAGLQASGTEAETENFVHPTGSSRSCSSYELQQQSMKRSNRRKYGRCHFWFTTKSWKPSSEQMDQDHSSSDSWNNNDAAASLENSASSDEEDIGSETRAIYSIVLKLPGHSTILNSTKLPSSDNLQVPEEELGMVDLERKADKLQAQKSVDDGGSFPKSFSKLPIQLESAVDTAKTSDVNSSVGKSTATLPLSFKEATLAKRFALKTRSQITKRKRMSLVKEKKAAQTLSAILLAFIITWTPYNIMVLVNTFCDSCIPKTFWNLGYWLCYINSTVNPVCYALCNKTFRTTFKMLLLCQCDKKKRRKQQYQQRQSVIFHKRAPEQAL
Sequence of Cytochrome P450 2C9 (P11712 whole entry): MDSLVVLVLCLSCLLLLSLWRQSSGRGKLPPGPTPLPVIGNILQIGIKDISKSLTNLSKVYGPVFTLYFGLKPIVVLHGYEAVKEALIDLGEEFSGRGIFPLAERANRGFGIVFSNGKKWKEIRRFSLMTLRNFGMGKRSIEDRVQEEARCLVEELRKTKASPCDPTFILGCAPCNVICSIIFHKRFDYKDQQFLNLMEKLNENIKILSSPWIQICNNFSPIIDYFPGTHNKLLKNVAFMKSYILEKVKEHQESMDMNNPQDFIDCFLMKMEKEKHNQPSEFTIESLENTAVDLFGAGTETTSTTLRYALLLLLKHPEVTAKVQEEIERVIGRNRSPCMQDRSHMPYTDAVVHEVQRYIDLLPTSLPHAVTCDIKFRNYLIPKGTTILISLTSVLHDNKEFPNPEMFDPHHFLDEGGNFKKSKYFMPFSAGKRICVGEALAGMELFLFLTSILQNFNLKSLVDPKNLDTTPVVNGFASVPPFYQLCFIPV
Sequence of Voltage-gated inwardly rectifying potassium channel KCNH2 (Q12809 whole entry): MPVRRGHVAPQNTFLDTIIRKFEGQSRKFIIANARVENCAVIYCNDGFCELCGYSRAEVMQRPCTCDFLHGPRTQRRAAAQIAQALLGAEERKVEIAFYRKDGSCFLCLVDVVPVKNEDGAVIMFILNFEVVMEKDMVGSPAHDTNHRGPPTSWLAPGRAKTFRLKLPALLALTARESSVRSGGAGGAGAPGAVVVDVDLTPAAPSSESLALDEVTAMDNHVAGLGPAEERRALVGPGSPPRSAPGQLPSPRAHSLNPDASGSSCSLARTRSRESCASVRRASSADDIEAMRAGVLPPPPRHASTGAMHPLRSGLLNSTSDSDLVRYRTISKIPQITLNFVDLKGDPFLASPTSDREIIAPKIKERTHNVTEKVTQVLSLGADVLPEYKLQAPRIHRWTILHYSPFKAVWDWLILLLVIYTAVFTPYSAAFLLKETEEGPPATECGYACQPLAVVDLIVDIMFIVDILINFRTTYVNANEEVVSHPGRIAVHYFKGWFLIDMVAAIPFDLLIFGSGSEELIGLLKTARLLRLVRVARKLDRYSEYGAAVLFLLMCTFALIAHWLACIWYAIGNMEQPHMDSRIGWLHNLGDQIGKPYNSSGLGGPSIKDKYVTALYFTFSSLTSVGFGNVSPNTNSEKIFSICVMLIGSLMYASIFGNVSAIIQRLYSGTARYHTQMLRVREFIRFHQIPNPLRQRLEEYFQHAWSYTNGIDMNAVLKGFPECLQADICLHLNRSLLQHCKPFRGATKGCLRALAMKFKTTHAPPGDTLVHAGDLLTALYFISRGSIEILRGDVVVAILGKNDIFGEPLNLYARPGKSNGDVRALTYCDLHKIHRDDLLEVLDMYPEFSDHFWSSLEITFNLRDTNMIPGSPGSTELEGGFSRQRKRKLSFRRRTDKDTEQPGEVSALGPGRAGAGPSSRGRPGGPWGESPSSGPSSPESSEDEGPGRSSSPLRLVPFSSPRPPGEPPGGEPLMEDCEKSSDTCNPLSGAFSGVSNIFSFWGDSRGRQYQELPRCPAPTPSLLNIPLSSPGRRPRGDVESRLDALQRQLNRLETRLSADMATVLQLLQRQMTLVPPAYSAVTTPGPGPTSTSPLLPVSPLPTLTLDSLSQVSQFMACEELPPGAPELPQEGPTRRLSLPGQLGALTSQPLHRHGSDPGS
Sequence of Cytochrome P450 2D6 (P10635 whole entry): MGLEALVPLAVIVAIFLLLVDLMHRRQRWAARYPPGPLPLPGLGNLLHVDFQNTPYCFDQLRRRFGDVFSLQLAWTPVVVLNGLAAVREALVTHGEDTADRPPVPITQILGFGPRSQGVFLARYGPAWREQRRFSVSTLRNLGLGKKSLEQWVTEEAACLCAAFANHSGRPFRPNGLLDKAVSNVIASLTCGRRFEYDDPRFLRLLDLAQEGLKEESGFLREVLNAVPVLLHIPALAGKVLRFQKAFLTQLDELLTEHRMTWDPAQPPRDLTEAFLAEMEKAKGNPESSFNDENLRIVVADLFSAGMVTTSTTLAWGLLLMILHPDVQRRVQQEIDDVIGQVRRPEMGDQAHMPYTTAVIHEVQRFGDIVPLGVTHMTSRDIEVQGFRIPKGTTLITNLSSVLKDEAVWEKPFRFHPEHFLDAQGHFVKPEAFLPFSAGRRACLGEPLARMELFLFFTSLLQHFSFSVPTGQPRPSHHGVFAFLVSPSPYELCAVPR
Sequence of Beta-2 adrenergic receptor (P07550 whole entry): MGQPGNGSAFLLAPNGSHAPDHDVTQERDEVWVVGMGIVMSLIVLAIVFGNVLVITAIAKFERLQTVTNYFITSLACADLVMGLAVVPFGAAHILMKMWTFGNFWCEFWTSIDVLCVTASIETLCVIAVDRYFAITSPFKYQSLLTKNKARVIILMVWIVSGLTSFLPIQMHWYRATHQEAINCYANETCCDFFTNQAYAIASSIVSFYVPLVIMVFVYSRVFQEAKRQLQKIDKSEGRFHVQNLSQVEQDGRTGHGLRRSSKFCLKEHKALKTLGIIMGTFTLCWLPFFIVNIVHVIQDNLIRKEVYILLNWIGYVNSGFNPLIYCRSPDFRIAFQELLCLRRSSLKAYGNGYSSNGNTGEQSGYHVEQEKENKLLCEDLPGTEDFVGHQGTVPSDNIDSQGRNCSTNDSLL
Sequence of Cytochrome P450 3A4 (P08684 whole entry): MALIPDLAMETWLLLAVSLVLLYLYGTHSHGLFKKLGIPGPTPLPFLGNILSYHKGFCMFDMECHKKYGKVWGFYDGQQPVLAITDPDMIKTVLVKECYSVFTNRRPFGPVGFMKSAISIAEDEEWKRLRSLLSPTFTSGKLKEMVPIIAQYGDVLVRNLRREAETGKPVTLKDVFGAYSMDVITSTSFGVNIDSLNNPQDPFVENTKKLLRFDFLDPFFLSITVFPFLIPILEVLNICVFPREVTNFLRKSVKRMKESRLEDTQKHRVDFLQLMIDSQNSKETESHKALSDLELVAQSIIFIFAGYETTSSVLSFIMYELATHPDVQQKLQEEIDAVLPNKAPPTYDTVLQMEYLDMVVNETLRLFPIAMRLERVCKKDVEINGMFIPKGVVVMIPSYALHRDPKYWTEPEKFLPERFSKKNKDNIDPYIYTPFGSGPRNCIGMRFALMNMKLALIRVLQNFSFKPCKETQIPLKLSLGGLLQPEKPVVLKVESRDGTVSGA

SMILES	Emax [1]	pEC50 [3]	pEC50 [4]	logD [5]	Emax [6]	microsomal CLint [7]	Papp A→B [8]	other results
Cn1nc2c(cc1=O)CCNCC2	52%	6.47						Emax [2]: 32%
O=c1cc2c(nn1Cc1ccc(OC(F)(F)F)cc1)CCNCC2	66%	7.32	< 5.00	1.5	58%	< 7 µL/min/mg		
c1ccc(COc2n[nH]c3c2CCNCC3)cc1		6.75	6.45	0.5	56%	< 7 µL/min/mg	24 ×10⁻⁶ cm/s	
O=c1cc2c(nn1Cc1ccc(C3CC3)cc1)CCNCC2	51%	7.59	7.08	1.4	34%	< 7 µL/min/mg		
c1ccc(Cn2cc3c(n2)CCNCC3)cc1	65%	5.30	< 5.00	0.1		< 7 µL/min/mg	27 ×10⁻⁶ cm/s	
O=c1cc2c(nn1CCOc1ccccc1)CCNCC2		< 5.00	< 5.00	0.4		< 7 µL/min/mg		
O=c1cc2c(nn1Cc1cccc(Cl)c1)CCNCC2	70%	7.52	7.09	1.1	73%	< 7 µL/min/mg	32 ×10⁻⁶ cm/s	
Cc1nnc2c3c(nc(Cc4ccccc4)n12)CCNCC3								Emax [9]: 36%; pEC50 [10]: 5.80
Clc1cccc(N2CCNCC2)c1	71%				35%			
N#Cc1ccc(Cn2nc3c(cc2=O)CCNCC3)cc1	51%	5.18		-0.1		< 7 µL/min/mg	11 ×10⁻⁶ cm/s	Emax [2]: 42%
Cn1c2c(c(=O)n1Cc1ccccc1)CCNCC2		5.53	< 5.00	0		< 7 µL/min/mg	13 ×10⁻⁶ cm/s	
CC(C)CCn1nc2c(cc1=O)CCNCC2	77%	7.21		0.6		< 7 µL/min/mg		Emax [2]: 65%
O=c1cc2c(nn1-c1ccccc1)CCNCC2		< 5.00	< 5.00	-0.3				
Cc1nc2c3c(nc(Cc4ccccc4)n2n1)CCNCC3								Efficacy [11]: 20%; inhibition (INH) [12]: < 10%; concentration at 1 h [13]: 89 nM; pKi [14]: 5.12; Emax [9]: 40%; inhibition (INH) [15]: < 10%; inhibition (INH) [16]: < 10%; pEC50 [10]: 5.74; pKi [17]: 5.09; pKi [18]: < 4.66; pKi [19]: 5.43; inhibition (INH) [20]: < 10%
O=c1[nH]n(Cc2ccccc2)c2c1CCNCC2	68%	< 5.00	< 5.00	-0.1		< 7 µL/min/mg		
O=c1cc2c(nn1Cc1ccccc1OC(F)(F)F)CCNCC2	57%	6.97	6.85	1.2	86%	< 7 µL/min/mg		
O=c1cc2c(nn1Cc1ccccc1Cl)CCNCC2	56%	7.48	7.03	0.9	67%	< 7 µL/min/mg		
O=c1c2c([nH]n1Cc1ccccc1)CCNCC2	57%	< 5.00	< 5.00	-0.5			2 ×10⁻⁶ cm/s	CL [21]: 13 µL/min/mg
O=c1cc2c(nn1Cc1ccc(C(F)(F)F)cc1)CCNCC2	47%	6.90	6.33	1.1	59%	10 µL/min/mg		
O=c1cc2c(nn1Cc1ccc(Cl)cc1)CCNCC2	40%	7.51	6.57	1.1	73%	< 7 µL/min/mg		
O=c1cc2c(nn1Cc1ccccc1)CCNCC2	79%	7.51	6.45	0.3	48%	< 7 µL/min/mg	25 ×10⁻⁶ cm/s	Ratio EC50 [22]: 10
